{"source": "patent US20210386068A1", "about": "“COMPOSITIONS COMPRISING PYRIDINE CARBOXYLATE HERBICIDES AND VERY LONG CHAIN FATTY ACID (VLCFA) SYNTHESIS INHIBITOR HERBICIDES” (priority 2018, published 2021)", "key": {"[1]": {"tested_on": "Salsola kali (Russian thistle, SASKR)", "test": "Greenhouse postemergence herbicidal effect, visual injury 20-22 d after spraying, Russian thistle (SASKR)", "assay_type": "in vivo", "conditions": "for % visual injury Obs: SASKR", "source_text": "(§1) Seeds of the desired test plant species were planted in a 90:10% v/v (volume/volume) mixture of PRO-MIX® BX (Premier Tech Horticulture, Quakertown, Pa., USA) and PROFILE® GREENS GRADE™ (Profile Products LLC, Buffalo Grove, Ill., USA) planting mixture, which typically has a pH of 5.2 to 6.2 and an organic matter content of at least 50 percent, in plastic pots with a surface area of 103.2 square centimeters (cm^2). In some aspects, to ensure good germination and healthy plants, a fungicide treatment and/or other chemical or physical treatment was applied. The plants were grown for 7-36 days (d) in a greenhouse with an approximate 14-hour (h) photoperiod which was maintained at about 23° C. during the day and 22° C. during the night. Nutrients and water were added on a regular basis and supplemental lighting was provided with overhead metal halide 1000-Watt lamps as necessary. The plants were employed for testing when they reached the second or third true leaf stage.\n(§2) Emulsifiable concentrates of each of each pyridine carboxylate herbicide (Compound A or Compound B) were prepared at 100 grams acid equivalent per liter (g ae/L). The emulsifiable concentrates also included a safener, cloquintocet-mexyl, at 120 grams active ingredient per liter (g ai/L). An aliquot of each emulsifiable concentrate was placed in a 25 mL glass vial and diluted with an aqueous mixture of 1.25% (v/v) ACTIROB® B esterified rapeseed oil (Bayer Crop Science, Research Triangle Park, N.C., USA) or MSO® Concentrate with LECI-TECH® methylated soybean oil (Loveland Products, Loveland, Colo., USA) to obtain concentrated stock solutions at the highest application rate for each herbicide, based upon a 12 milliliter (mL) application volume at a rate of 187 liters per hectare (L/ha). The concentrated stock solutions were further diluted with an aqueous mixture of 1.25% v/v ACTIROB® B or MSO® Concentrate with LECI-TECH® to obtain stock solutions at reduced application rates for each herbicide. Spray solutions of the herbicide combinations (Compound A or Compound B plus VLCFA synthesis inhibitor herbicide) were prepared by adding weighed amounts or aliquots of the VLCFA synthesis inhibitor herbicide to the stock solutions of Compound A or Compound B to form 12-mL spray solutions in two-way combinations.\n(§3) The spray solutions were applied to the plant material with an overhead Mandel track sprayer equipped with 8002E nozzles calibrated to deliver 187 L/ha over an application area of 0.503 square meters (m^2) at a spray height of 18 inches ([…] (cm)) above the average plant canopy. Control plants were sprayed in the same manner with the solvent blank. All pyridine carboxylate herbicide (component a) application rates are given as “g ae/ha” and all VLCFA synthesis inhibitor herbicide (component b) application rates are given as “g ai/ha.”\n(§4) The treated plants and control plants were placed in a greenhouse as described above and watered by sub-irrigation to prevent wash-off of the test compounds. After 20-22 d, the condition of the test plants as compared with that of the control plants was determined visually and scored on a scale of 0 to 100 percent where 0 corresponds to no injury and 100 corresponds to complete kill."}, "[2]": {"tested_on": "Kochia scoparia (kochia, KCHSC)", "test": "Greenhouse postemergence herbicidal effect, visual injury 20-22 d after spraying, kochia (KCHSC)", "assay_type": "in vivo", "conditions": "for % visual injury Obs: KCHSC", "source_text": "as §1, §2, §3, §4"}, "[3]": {"tested_on": "Chenopodium album L. (common lambsquarters, CHEAL)", "test": "Greenhouse postemergence herbicidal effect, visual injury 20-22 d after spraying, common lambsquarters (CHEAL)", "assay_type": "in vivo", "source_text": "as §1, §2, §3, §4"}, "[4]": {"tested_on": "Amaranthus retroflexus (pigweed, AMARE)", "test": "Greenhouse postemergence herbicidal effect, visual injury 20-22 d after spraying, pigweed (AMARE)", "assay_type": "in vivo", "source_text": "as §1, §2, §3, §4"}, "[5]": {"tested_on": "Matricaria chamomilla (wild chamomile, MATCH)", "test": "Greenhouse postemergence herbicidal effect, visual injury 20-22 d after spraying, wild chamomile (MATCH)", "assay_type": "in vivo", "source_text": "as §1, §2, §3, §4"}, "[6]": {"tested_on": "Cirsium arvense (Canadian thistle, CIRAR)", "test": "Greenhouse postemergence herbicidal effect, visual injury 20-22 d after spraying, Canadian thistle (CIRAR)", "assay_type": "in vivo", "source_text": "as §1, §2, §3, §4"}, "[7]": {"tested_on": "Hordeum vulgare (spring barley, HORVS)", "test": "Greenhouse postemergence crop phytotoxicity, visual injury 20-22 d after spraying, spring barley (HORVS)", "assay_type": "in vivo", "conditions": "for % visual injury Obs: HORVS", "source_text": "as §1, §2, §3, §4"}, "[8]": {"tested_on": "Abutilon theophrasti (velvetleaf, ABUTH)", "test": "Greenhouse postemergence herbicidal effect, visual injury 20-22 d after spraying, velvetleaf (ABUTH)", "assay_type": "in vivo", "source_text": "as §1\nEmulsifiable concentrates of each of each pyridine carboxylate herbicide (Compound A or Compound B) were prepared at 100 grams acid equivalent per liter (g ae/L). The emulsifiable concentrates also included a safener, cloquintocet-mexyl, at 120 grams active ingredient per liter (g ai/L). […]\nas §4"}, "[9]": {"tested_on": "Capsella bursa-pastoris (shepherd's purse, CAPBP)", "test": "Greenhouse postemergence herbicidal effect, visual injury 20-22 d after spraying, shepherd's purse (CAPBP)", "assay_type": "in vivo", "source_text": "as §1, §2, §3, §4"}, "[10]": {"tested_on": "Veronica hederifolia (ivy-leaved speedwell, VERHE)", "test": "Greenhouse postemergence herbicidal effect, visual injury 20-22 d after spraying, ivy-leaved speedwell (VERHE)", "assay_type": "in vivo", "source_text": "as §1, §2, §3, §4"}, "[11]": {"tested_on": "Matricaria discoidea (pineapple weed, MATMT)", "test": "Greenhouse postemergence herbicidal effect, visual injury 20-22 d after spraying, pineapple weed (MATMT)", "assay_type": "in vivo", "source_text": "as §1, §2, §3, §4"}, "winter wheat (TRZAW)": {"tested_on": "winter wheat (TRZAW)", "test": "Greenhouse postemergence crop phytotoxicity, visual injury 20-22 d after spraying, winter wheat (TRZAW)", "assay_type": "in vivo, Triticum aestivum", "source_text": "as §1, §2, §3, §4"}}, "note": "Values joined by “and” are separate entries in the source; they are usually repeats but may differ in a detail not shown here. Equal entries are not always repeated."}
{"smiles": "N#CCOC(=O)c1nc(-c2ccc3cc[nH]c3c2F)c(F)c(N)c1Cl", "note": "[Compound A, cyanomethyl 4-amino-3-chloro-5-fluoro-6-(7-fluoro-1H-indol-6-yl)pyridine-2-carboxylate]", "values": [{"measurement": "% visual injury SASKR Obs", "setting": "[1]; Compound A 7.5 g/ha", "result": 50, "unit": "%"}, {"measurement": "% visual injury SASKR Obs", "setting": "[1]; Compound A 10 g/ha", "result": 60, "unit": "%"}, {"measurement": "% visual injury SASKR Obs", "setting": "[1]; Compound A 15 g/ha", "result": 63, "unit": "%"}, {"measurement": "% visual injury Obs", "setting": "[1]; Compound A 7.5 g/ha alone", "result": "60% and 45% and 38%"}, {"measurement": "% visual injury Obs", "setting": "[1]; Compound A 10 g/ha alone", "result": "63% and 60%"}, {"measurement": "% visual injury KCHSC Obs", "setting": "[2]; Compound A 7.5 g/ha", "result": 63, "unit": "%"}, {"measurement": "% visual injury KCHSC Obs", "setting": "[2]; Compound A 10 g/ha", "result": 65, "unit": "%"}, {"measurement": "% visual injury KCHSC Obs", "setting": "[2]; Compound A 15 g/ha", "result": 63, "unit": "%"}, {"measurement": "% visual injury Obs", "setting": "[2]; Compound A 7.5 g/ha alone", "result": "63% and 50% and 70%"}, {"measurement": "% visual injury Obs", "setting": "[2]; Compound A 10 g/ha alone", "result": "63% and 58% and 55% and 70%"}, {"measurement": "% visual injury Obs", "setting": "[3]; Compound A 7.5 g/ha alone", "result": "88% and 70% and 60% and 75%"}, {"measurement": "% visual injury Obs", "setting": "[3]; Compound A 10 g/ha alone", "result": "93% and 83% and 90% and 80%"}, {"measurement": "% visual injury Obs", "setting": "[4]; Compound A 7.5 g/ha alone", "result": "78% and 80% and 70% and 90%"}, {"measurement": "% visual injury Obs", "setting": "[4]; Compound A 10 g/ha alone", "result": "73% and 85% and 98%"}, {"measurement": "% visual injury MATCH Obs", "setting": "[5]; Compound A 7.5 g/ha", "result": 23, "unit": "%"}, {"measurement": "% visual injury MATCH Obs", "setting": "[5]; Compound A 10 g/ha", "result": 35, "unit": "%"}, {"measurement": "% visual injury MATCH Obs", "setting": "[5]; Compound A 15 g/ha", "result": 45, "unit": "%"}, {"measurement": "% visual injury CIRAR Obs", "setting": "[6]; Compound A 7.5 g/ha", "result": 50, "unit": "%"}, {"measurement": "% visual injury CIRAR Obs", "setting": "[6]; Compound A 10 g/ha", "result": 63, "unit": "%"}, {"measurement": "% visual injury CIRAR Obs", "setting": "[6]; Compound A 15 g/ha", "result": 63, "unit": "%"}, {"measurement": "% visual injury HORVS Obs", "setting": "[7]; Compound A 7.5 g/ha", "result": 0, "unit": "%"}, {"measurement": "% visual injury HORVS Obs", "setting": "[7]; Compound A 10 g/ha", "result": 0, "unit": "%"}, {"measurement": "% visual injury HORVS Obs", "setting": "[7]; Compound A 15 g/ha", "result": 0, "unit": "%"}, {"measurement": "% visual injury Obs", "setting": "[7]; Compound A 7.5 g/ha alone", "result": "0% and 8%"}, {"measurement": "% visual injury Obs", "setting": "[7]; Compound A 10 g/ha alone", "result": 0, "unit": "%"}, {"measurement": "% visual injury Obs", "setting": "[8]; Compound A 7.5 g/ha alone", "result": 40, "unit": "%"}, {"measurement": "% visual injury Obs", "setting": "[8]; Compound A 10 g/ha alone", "result": 48, "unit": "%"}, {"measurement": "% visual injury CAPBP Obs", "setting": "[9]; Compound A 7.5 g/ha", "result": 45, "unit": "%"}, {"measurement": "% visual injury CAPBP Obs", "setting": "[9]; Compound A 10 g/ha", "result": 55, "unit": "%"}, {"measurement": "% visual injury CAPBP Obs", "setting": "[9]; Compound A 15 g/ha", "result": 55, "unit": "%"}, {"measurement": "% visual injury VERHE Obs", "setting": "[10]; Compound A 7.5 g/ha", "result": 68, "unit": "%"}, {"measurement": "% visual injury VERHE Obs", "setting": "[10]; Compound A 10 g/ha", "result": 73, "unit": "%"}, {"measurement": "% visual injury VERHE Obs", "setting": "[10]; Compound A 15 g/ha", "result": 75, "unit": "%"}, {"measurement": "% visual injury MATMT Obs", "setting": "[11]; Compound A 7.5 g/ha", "result": 20, "unit": "%"}, {"measurement": "% visual injury MATMT Obs", "setting": "[11]; Compound A 10 g/ha", "result": 20, "unit": "%"}, {"measurement": "% visual injury MATMT Obs", "setting": "[11]; Compound A 15 g/ha", "result": 63, "unit": "%"}, {"measurement": "% visual injury TRZAW Obs", "setting": "winter wheat (TRZAW); Compound A 7.5 g/ha", "result": 0, "unit": "%"}, {"measurement": "% visual injury TRZAW Obs", "setting": "winter wheat (TRZAW); Compound A 10 g/ha", "result": 0, "unit": "%"}, {"measurement": "% visual injury TRZAW Obs", "setting": "winter wheat (TRZAW); Compound A 15 g/ha", "result": 0, "unit": "%"}]}
